Data reported in US9017643B2, “Particles comprising a releasable dopant therein” (Australian Nuclear Science and Technology Organisation, priority 2005, dated 2015).

Columns and labels:
Release into ethanol = format: physicochemical; details: for Encapsulated dye released: ethanol
Method: (§1) The sample was suspended in 50/50 v/v ethanol/water (10 mL) with stirring. At each time point, the sample was centrifuged (10,000 rpm, 10 minutes) and the supernatant removed. Fresh solvent was then added and the solid resuspended. In comparison, the release of dye from a similar sample into 100% ethanol solution is very rapid, with about 40% of the dye released after several minutes.
(§2) The sample was suspended in 50/50 v/v ethanol/water (10 mL) with stirring. At each time point, the sample was centrifuged (10,000 rpm, 10 minutes) and the supernatant removed. Fresh solvent was then added and the solid resuspended. In contrast to the slow release into ethanol/water, the release into ethanol is very rapid, with approximately 70% of the encapsulated dye released within one hour.
The samples (53.5 and 49.2 mg respectively) were suspended in ethanol (100 mL) with stirring. At each time point, 1.5 mL was extracted from both samples and centrifuged to isolate the solid, which was then returned to the solution with 1 mL of fresh ethanol. The extracted 1.5 mL was analysed by UV/Vis (absorbance at 536 nm), to determine the concentration of sudan red dye released into the supernatant. The second sample released dye more quickly than the first, but by 100 minutes, both samples had released >90% of the encapsulated sudan red dye.

[1] = Release into sodium hydroxide solution at pH=12; format: physicochemical; details: Example 3, after 27 days, both samples (phenylsiloxane and vinylsiloxane)
Method: The rate of release of diuron into sodium hydroxide solution at pH=12 was measured over a period of one month. Analysing the extent of release is somewhat problematic due to the low solubility of diuron in water. In order to determine the release characteristics, diuron-doped particles (about […]) were suspended in NaOH solution (0.01 mol dm^−3, 50 mL) and stirred. At one-week intervals, the solution was centrifuged and the supernatant removed. The diuron-doped particles were then resuspended in a fresh solution of NaOH (0.01 mol dm^−3, 50 mL) and stirred. The removed supernatant was shaken with octanol (10 mL) in a separating flask to extract dissolved diuron. This was repeated twice, and the resulting approximately 30 mL organic fraction was reserved for diuron analysis by HPLC. The amount of diuron released after 27 days was about 5% (of the total encapsulated) for both samples. The amount released was less than expected compared with the dissolution results at pH=12. This could reflect an incomplete extraction of diuron from the aqueous phase during the process of shaking with octanol.

[2] = Release into 50/50 v/v ethanol/water; format: physicochemical; details: phenylsiloxane particles
Method: Release of retinol from the particles into 50:50 (v/v) ethanol:water solution was measured over a period of 11 days. Due to decomposition of retinol released into the solution, the supernatant was refreshed at each time point, and the release measured using UV/Vis spectroscopy (peak at 325 nm). Approximately 11% of the encapsulated retinol was released after one day, followed by slower release thereafter.
as §1, §2

[3] = Integrity of retinol after encapsulation (UV/Visible spectra, leaching into ethanol); format: physicochemical
Description: The UV/Visible spectra of the both retinol-doped and undoped phenylsiloxane particles dispersed in PTFE powder (10 wt %), were collected using a diffuse reflectance accessory. […] The bandshift from 325 nm in ethanol solution to 335 nm in the solid is due to difference of environment experienced by the retinol molecule. […] This is likely to be due to exposure to low pH (=1.0) during the hydrolysis of TMOS.

[4] = silica shell capsules loaded by post impregnation; after four hours; cited from earlier work

**Q.** Which Dye released (Release into ethanol; similar sample to Example 5, 100% ethanol, after several minutes) does the source give for `CCCCNc1ccc(NCCCC)c2c1C(=O)c1ccccc1C2=O` [Solvent blue 35] here?
**A.** about 40%

**Q.** For `CN(C)C(=O)Nc1ccc(Cl)c(Cl)c1` [diuron], which “Amount released (of the total encapsulated)” value [1] is on record?
**A.** about 5%

**Q.** With `C=C(C)[C@H]1CC=C(C)CC1` [limonene] as the molecule, how does the “Weight removed from the solid on leaching in ethanol” value (Release into ethanol; 15 ml limonene: 30 ml PTMS, HPLC) read?
**A.** about 3%

**Q.** For `CC1=C(/C=C/C(C)=C/C=C/C(C)=C/CO)C(C)(C)CCC1` [retinol], which Encapsulated dopant released ([2]; Example 1, 50:50 (v/v) ethanol:water, after one day) is on record?
**A.** Approximately 11%

**Q.** And the Integrity after encapsulation ([3]; phenylsiloxane particles, absorption peak at 325 nm on release into ethanol)?
**A.** has not been damaged

**Q.** And the Integrity after encapsulation ([3]; silica particles made by double emulsion process with TMOS, no peak at 325 nm)?
**A.** has been degraded

**Q.** Which “Porphyrin leached from the particles” value [4] does the source give for `C1=Cc2nc1c(-c1ccccc1)c1ccc([nH]1)c(-c1ccccc1)c1nc(c(-c3ccccc3)c3ccc([nH]3)c2-c2ccccc2)C=C1` [tetraphenyl porphyrin] here?
**A.** 60%

**Q.** Which “Release (in words)” value ([2]; Example 6, 50/50 v/v ethanol/water) does the source give for Sudan red here?
**A.** slow release

**Q.** What about the Encapsulated dye released (Release into ethanol; Example 6, phenylsiloxane particles, within one hour) of the same molecule?
**A.** approximately 70%

**Q.** And the Encapsulated dye released (Release into ethanol; Example 7, vinylsiloxane particles, by 100 minutes, both samples)?
**A.** > 90%
